PubChem BioAssay (NCI)
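Compound exposure: 48 hours, 5 concentrations, 96-well plates. GI50 = concentration required for 50% inhibition of growth. TGI: total growth inhibition.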

Key:
Experiment in all cases: NCI-60 cell line screen, 48 h
[1] = tested on: EKVX NSCLC
[2] = tested on: SK-MEL-2 melanoma
[3] = tested on: HT29 colon
[4] = tested on: MALME-3M melanoma
[5] = tested on: SF-295 CNS
[6] = tested on: PC-3 prostate
[7] = tested on: HCT-116 colon
[8] = tested on: MDA-MB-231 breast
[9] = tested on: SR leukemia
[10] = tested on: HOP-62 NSCLC
[11] = tested on: M14 melanoma
[12] = tested on: K-562 leukemia
[13] = tested on: NCI-H226 lung
[14] = tested on: HS 578T breast
[15] = tested on: NCI-H460 lung
[16] = tested on: SF-539 CNS
[17] = tested on: LOX IMVI melanoma
[18] = tested on: OVCAR-4 ovarian
[19] = tested on: U251 CNS
[20] = tested on: SK-OV-3 ovarian
[21] = tested on: UACC-62 melanoma
[22] = tested on: OVCAR-3 ovarian
[23] = tested on: SN12C renal
[24] = tested on: NCI-H23 lung
[25] = tested on: HL-60(TB) leukemia
[26] = tested on: HCT-15 colon
[27] = tested on: ACHN renal
[28] = tested on: 786-0 renal
[29] = tested on: UO-31 renal
[30] = tested on: SK-MEL-5 melanoma
[31] = tested on: TK-10 renal
[32] = tested on: NCI-H522 lung
[33] = tested on: SNB-75 CNS
[34] = tested on: SNB-19 CNS
[35] = tested on: DU-145 prostate
[36] = tested on: IGROV1 ovarian
[37] = tested on: SK-MEL-28 melanoma
[38] = tested on: NCI/ADR-RES ovarian
[39] = tested on: A498 renal
[40] = tested on: HCC-2998 colon
[41] = tested on: KM12 colon
[42] = tested on: BT-549 breast
[43] = tested on: MCF7 breast
[44] = tested on: OVCAR-5 ovarian
[45] = tested on: OVCAR-8 ovarian
[46] = tested on: RXF 393 renal
[47] = tested on: RPMI-8226 leukemia
[48] = tested on: CAKI-1 renal
[49] = tested on: COLO 205 colon
[50] = tested on: SW-620 colon
[51] = tested on: HOP-92 NSCLC
[52] = tested on: A549 NSCLC
[53] = tested on: SF-268 CNS
[54] = tested on: MDA-MB-435
[55] = tested on: UACC-257 melanoma

COc1ccc(NC2=C(Cl)C(=O)C(C)=C(C)C2=O)cc1
GI50 [1]: 1.79 µM
TGI [1]: 3.43 µM
GI50 [2]: 11 µM
TGI [2]: 24.1 µM
GI50 [3]: 23.5 µM
TGI [3]: 54.1 µM
GI50 [4]: 14 µM
TGI [4]: 28.2 µM
GI50 [5]: 10.3 µM
TGI [5]: 23.7 µM
GI50 [6]: 4.51 µM
TGI [6]: 20.6 µM
GI50 [7]: 2 µM
TGI [7]: 4.37 µM
GI50 [8]: 1.99 µM
TGI [8]: 4.49 µM
GI50 [9]: 2.37 µM
TGI [9]: 8.06 µM
GI50 [10]: 12.2 µM
TGI [10]: 25.4 µM
GI50 [11]: 12 µM
TGI [11]: 26.6 µM
GI50 [12]: 2.58 µM
TGI [12]: 9.59 µM
GI50 [13]: 12.3 µM
TGI [13]: 27.6 µM
GI50 [14]: 17.4 µM
TGI [14]: 72.4 µM
GI50 [15]: 25.5 µM
TGI [15]: > 100 µM
GI50 [16]: 15.5 µM
TGI [16]: 29.4 µM
GI50 [17]: 1.79 µM
TGI [17]: 3.59 µM
GI50 [18]: 1.71 µM
TGI [18]: 3.1 µM
GI50 [19]: 7.5 µM
TGI [19]: 21 µM
GI50 [20]: 10.8 µM
TGI [20]: 22.7 µM
GI50 [21]: 10.6 µM
TGI [21]: 22.7 µM
GI50 [22]: 2.12 µM
TGI [22]: 4.53 µM
GI50 [23]: 12.7 µM
TGI [23]: 26.3 µM
GI50 [24]: 14.8 µM
TGI [24]: 55 µM
GI50 [25]: 2.18 µM
TGI [25]: 5.54 µM
GI50 [26]: 13.7 µM
TGI [26]: 27.9 µM
GI50 [27]: 3.94 µM
TGI [27]: 13.6 µM
GI50 [28]: 18.7 µM
TGI [28]: 34 µM
GI50 [29]: 11.1 µM
TGI [29]: 23.1 µM
GI50 [30]: 6.45 µM
TGI [30]: 19.1 µM
GI50 [31]: 28.6 µM
TGI [31]: 52.1 µM
GI50 [32]: 13.3 µM
TGI [32]: 29.5 µM
GI50 [33]: 4.49 µM
TGI [33]: 19.1 µM
GI50 [34]: 10.3 µM
TGI [34]: 22.1 µM
GI50 [35]: 25.2 µM
TGI [35]: 69.8 µM
GI50 [36]: 1.78 µM
TGI [36]: 3.35 µM
GI50 [37]: 14.9 µM
TGI [37]: 28.8 µM
GI50 [38]: 2.89 µM
TGI [38]: 9.87 µM
GI50 [39]: 18 µM
TGI [39]: 47.2 µM
GI50 [40]: 16.8 µM
TGI [40]: 31.7 µM
GI50 [41]: 3.75 µM
TGI [41]: 44.3 µM
GI50 [42]: 13.3 µM
TGI [42]: 26.6 µM
GI50 [43]: 2.35 µM
TGI [43]: 6.05 µM
GI50 [44]: 16.8 µM
TGI [44]: 35.7 µM
GI50 [45]: 1.84 µM
TGI [45]: 3.84 µM
GI50 [46]: 9.13 µM
TGI [46]: 21.4 µM
GI50 [47]: 2.23 µM
TGI [47]: 5.69 µM
GI50 [48]: 10.4 µM
TGI [48]: 22.2 µM
GI50 [49]: 19.2 µM
TGI [49]: 38.8 µM
GI50 [50]: 3.92 µM
TGI [50]: 18.9 µM
GI50 [51]: 1.4 µM
TGI [51]: 2.84 µM
GI50 [52]: 21.7 µM
TGI [52]: > 100 µM
GI50 [53]: 11.4 µM
TGI [53]: 52.2 µM
GI50 [54]: 2.74 µM
TGI [54]: 7.13 µM
GI50 [55]: 1.86 µM
TGI [55]: 3.96 µM
